{"source": "patent US12558320B2", "about": "“Method of preparing a solid dosage form and a lubricant” (Evonik Operations GmbH, priority 2019, dated 2026)", "test": "Quantification of stearic acid and palmitic acid in water after homogenization, centrifugation and filtration", "format": "physicochemical", "experimental": "For the quantification of stearic acid and palmitic acid in water from magnesium stearate alone 1 mg magnesium stearate was added in water under high shear homogenization and mixed for 15 min under continuous homogenization. After homogenization, the prepared dispersion was centrifuged to remove bigger particle size. The supernatant solution was then filtered through 0.2-micron nylon syringe filter and the filtrate was analyzed for content of stearic acid and palmitic acid. […] After homogenization, the prepared dispersion was centrifuged to remove bigger particle size. The supernatant solution was then filtered through 0.45 μm (B1) or 0.2 μm (B2) nylon syringe filter and the filtrate were analyzed for content of stearic acid and palmitic acid.", "data": [{"substance": "Magnesium stearate", "values": [{"measurement": "Palmitic acid", "setting": "powder, unfiltered", "value": 49.35, "unit": "% w/w"}, {"measurement": "Stearic acid", "setting": "powder, unfiltered", "value": 50.64, "unit": "% w/w"}, {"measurement": "Palmitic acid", "setting": "water, 0.2 μm filtered", "value": 2.91, "unit": "% w/w"}, {"measurement": "Stearic acid", "setting": "water, 0.2 μm filtered", "value": 0.00, "unit": "% w/w"}, {"measurement": "Total fatty acid in media", "setting": "water, 0.2 μm filtered", "value": 2.91, "unit": "%"}]}]}
